Source: PubChem BioAssay (NCI)
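Tested at 5 concentrations; 48 h exposure; 96-well plates; endpoints linearly interpolated, else capped at highest concentration. The concentration for 50% growth inhibition is given as GI50. Definition used: TGI = concentration required for complete inhibition of growth.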

How the values were obtained:
Assay in all cases: NCI-60 cell line screen, 48 h
[1] = tested on: 786-0 renal
[2] = tested on: A549 NSCLC
[3] = tested on: ACHN renal
[4] = tested on: BT-549 breast
[5] = tested on: CAKI-1 renal
[6] = tested on: CCRF-CEM leukemia
[7] = tested on: COLO 205 colon
[8] = tested on: DU-145 prostate
[9] = tested on: EKVX NSCLC
[10] = tested on: HCC-2998 colon
[11] = tested on: HCT-116 colon
[12] = tested on: HCT-15 colon
[13] = tested on: HOP-62 NSCLC
[14] = tested on: HOP-92 NSCLC
[15] = tested on: HS 578T breast
[16] = tested on: HT29 colon
[17] = tested on: IGROV1 ovarian
[18] = tested on: K-562 leukemia
[19] = tested on: KM12 colon
[20] = tested on: LOX IMVI melanoma
[21] = tested on: M14 melanoma
[22] = tested on: MCF7 breast
[23] = tested on: MDA-MB-231 breast
[24] = tested on: MDA-MB-435
[25] = tested on: MOLT-4 leukemia
[26] = tested on: NCI-H226 lung
[27] = tested on: NCI-H23 lung
[28] = tested on: NCI-H460 lung
[29] = tested on: NCI-H522 lung
[30] = tested on: NCI/ADR-RES ovarian
[31] = tested on: OVCAR-3 ovarian
[32] = tested on: OVCAR-4 ovarian
[33] = tested on: OVCAR-5 ovarian
[34] = tested on: OVCAR-8 ovarian
[35] = tested on: PC-3 prostate
[36] = tested on: RPMI-8226 leukemia
[37] = tested on: RXF 393 renal
[38] = tested on: SF-268 CNS
[39] = tested on: SF-295 CNS
[40] = tested on: SF-539 CNS
[41] = tested on: SK-MEL-2 melanoma
[42] = tested on: SK-MEL-28 melanoma
[43] = tested on: SK-MEL-5 melanoma
[44] = tested on: SK-OV-3 ovarian
[45] = tested on: SN12C renal
[46] = tested on: SNB-19 CNS
[47] = tested on: SNB-75 CNS
[48] = tested on: SW-620 colon
[49] = tested on: T-47D breast
[50] = tested on: TK-10 renal
[51] = tested on: U251 CNS
[52] = tested on: UACC-257 melanoma
[53] = tested on: UACC-62 melanoma
[54] = tested on: UO-31 renal

## O=C(Cc1csc2nc(-c3ccc(Br)cc3)cn12)N/N=C/c1cc(Br)ccc1O
[1]
  GI50: 15 µM
  TGI: > 100 µM
[2]
  GI50: 18.8 µM
  TGI: > 100 µM
[3]
  GI50: 6.13 µM
  TGI: 42.9 µM
[4]
  GI50: 27.7 µM
  TGI: > 100 µM
[5]
  GI50: 4.53 µM
  TGI: 34.9 µM
[6]
  GI50: 3.89 µM
  TGI: 38.6 µM
[7]
  GI50: 23.9 µM
  TGI: > 100 µM
[8]
  GI50: 19.5 µM
  TGI: > 100 µM
[9]
  GI50: 24.2 µM
  TGI: > 100 µM
[10]
  GI50: 5.5 µM
  TGI: 19.7 µM
[11]
  GI50: 4.31 µM
  TGI: 48.2 µM
[12]
  GI50: 5.6 µM
  TGI: > 100 µM
[13]
  GI50: 9.77 µM
  TGI: 41.3 µM
[14]
  GI50: 22.2 µM
  TGI: > 100 µM
[15]
  GI50: 53.3 µM
  TGI: > 100 µM
[16]
  GI50: 34.7 µM
  TGI: > 100 µM
[17]
  GI50: 1.77 µM
  TGI: > 100 µM
[18]
  GI50: 3.02 µM
  TGI: 13.9 µM
[19]
  GI50: 29.6 µM
  TGI: > 100 µM
[20]
  GI50: 6.79 µM
  TGI: 28 µM
[21]
  GI50: 14.3 µM
  TGI: 30.4 µM
[22]
  GI50: > 100 µM
  TGI: > 100 µM
[23]
  GI50: 11.8 µM
  TGI: 66.8 µM
[24]
  GI50: 18 µM
  TGI: > 100 µM
[25]
  GI50: 0.674 µM
  TGI: 8.41 µM
[26]
  GI50: 23.3 µM
  TGI: 65.1 µM
[27]
  GI50: 4.32 µM
  TGI: 26.2 µM
[28]
  GI50: > 100 µM
  TGI: > 100 µM
[29]
  GI50: 11.3 µM
  TGI: > 100 µM
[30]
  GI50: 2.23 µM
  TGI: 6.75 µM
[31]
  GI50: 45.3 µM
  TGI: > 100 µM
[32]
  GI50: 50.2 µM
  TGI: > 100 µM
[33]
  GI50: 14 µM
  TGI: 73.5 µM
[34]
  GI50: 7.06 µM
  TGI: > 100 µM
[35]
  GI50: 9.46 µM
  TGI: > 100 µM
[36]
  GI50: 5.04 µM
  TGI: > 100 µM
[37]
  GI50: 63.9 µM
  TGI: > 100 µM
[38]
  GI50: > 100 µM
  TGI: > 100 µM
[39]
  GI50: 14 µM
  TGI: 88.3 µM
[40]
  GI50: 14.9 µM
  TGI: 53.8 µM
[41]
  GI50: 89 µM
  TGI: > 100 µM
[42]
  GI50: 48.8 µM
  TGI: > 100 µM
[43]
  GI50: 11.4 µM
  TGI: 45.4 µM
[44]
  GI50: > 100 µM
  TGI: > 100 µM
[45]
  GI50: 16.6 µM
  TGI: 79.6 µM
[46]
  GI50: 26.1 µM
  TGI: > 100 µM
[47]
  GI50: > 100 µM
  TGI: > 100 µM
[48]
  GI50: 5.51 µM
  TGI: > 100 µM
[49]
  GI50: 35.3 µM
  TGI: > 100 µM
[50]
  GI50: 4.33 µM
  TGI: 17 µM
[51]
  GI50: 11.3 µM
  TGI: > 100 µM
[52]
  GI50: 20.1 µM
  TGI: 63.2 µM
[53]
  GI50: 10.4 µM
  TGI: 28.6 µM
[54]
  GI50: 24 µM
  TGI: > 100 µM
